{"source": "patent US20040023276A1", "about": "“LXR-ligand induced genes and proteins” (priority 2002, published 2004)", "test_system": "LXRLI1 gene", "experiment": "Microarray gene expression profiles of cells treated with LXR-ligand", "type": "cell-based, human", "conditions": "THP-1 cells, primary macrophages, primary hepatocytes; APD 0.001-0.1 μM, 6-24 hours; treated vs. untreated", "source_text": "To identify human transcripts up or down regulated by LXR-ligand, FlexJet™ microarrays representing either 25,000 Unigene clusters were hybridized to a mixture of cRNAs prepared from samples obtained from untreated versus treated cells of various types. Microarrays, and materials and methods for preparing hybridization samples from purified RNA, hybridizing the microarrays, detecting hybridization signals, and data analysis are described in van't Veer,iet al. (2002 Nature 415:530-536) and Hughes, et al. (2001 Nature Biotechnol. 19:342-7).\nExperiments were conducted comparing gene expression profiles of primary hepatocytes, primary human macrophage and THP-1 cells treated with a variety of compounds known to activate the LXR and PPAR nuclear receptor regulated pathways. Additional compound treatments were performed which are known to cause an increase, or decrease in cellular cholesterol. All cells were cultured at 37° C. in a humidified atmosphere consisting of 95% air and 5% carbon dioxide. For each cell sample, mRNA was extracted and purified using Trizol reagent (Invitrogen Corporation, Carlsbad, Calif.) followed by DNAse treatment, as described by Fu, et al. (2001 J. Biol. Chem. 276:38378-87). For the primary hepatocytes, the Trizol purification was followed by a RNasy DNAase (Promega Corp, Madison, Wis.) step per the manufacturer's instructions. […]", "data": [{"smiles": "CC(=O)Oc1ccc2c(c1)[C@@]1(C)CCC[C@](C)(C(=O)OC(=O)[C@@]3(C)CCC[C@]4(C)c5cc(OC(C)=O)ccc5CC[C@@H]34)[C@@H]1CC2", "note": "[APD, acetylpodocarpic dimer]", "values": [{"measurement": "Transcription of the LXRLI1 gene", "value": "induced"}]}]}
